Data reported in US12714097B2, “Compositions and systems for disinfection” (Markesbery Blue Pearl LLC, priority 2017, dated 2026).
In brackets after ≈: the same amount, converted by molar mass.

Columns and labels:
[1] = cited from earlier work; for Sol (Exp): experimental water solubility; for solubility: aqueous, at 25° C.
[2] = cited from earlier work; for log P Exp.: experimentally determined, database entry; for Log P: known values used for standard curve
[3] = Experimental water solubility of alcohol compounds at 25° C.

Q: Which “Sol (Exp)” value ([1]; 25° C.) does the source give for `CC(C)C(C)(C)O` [2,3-Dimethyl-2-butanol] here?
A: The value was 43.5 g/L.

Q: What does the source list for `CCCCC(C)O` (centres unmarked) [2-hexanol]?
A: log P Exp. [2]: 1.76; Log P [2]: 1.76; Sol (Exp) ([1]; 25° C.): 13.7 g/L

Q: With `CC(C)C(O)C(C)C` [2,4-Dimethyl-3-pentanol] as the molecule, how does the “Sol (Exp)” value ([1]; 25° C.) read?
A: The value was 7 g/L.

Q: For `CC(C)CCCO` [4-Methyl-1-pentanol], which “Sol (Exp)” value ([1]; 25° C.) is on record?
A: The value was 7.6 g/L.

Q: With `CC(C)CCO` [3-methyl-1-butanol] as the molecule, how does the “Sol (Exp)” value ([1]; 25° C.) read?
A: The value was 26.7 g/L.

Q: For `CCCCCCCCO` [n-octanol], which solubility [1] is on record?
A: Its solubility is 0.5 grams per liter.

Q: With `Cc1ccccc1O` [2-methyl phenol] as the molecule, how does the “Sol (Exp)” value ([1]; 25° C.) read?
A: Its value is 25.9 g/L.

Q: What does the source list for `CCCC(C)O` (centres unmarked) [2-pentanol]?
A: Log P [2]: 1.19; Sol (Exp) ([1]; 25° C.): 44.6 g/L

Q: Which “Sol (Exp)” value ([1]; 25° C.) does the source give for `CC(C)CC(C)(C)O` [2,4-Dimethyl-2-pentanol] here?
A: The value was 13.6 g/L.

Q: Which “log P Exp.” value [2] does the source give for `CC=CC=CCO` [2,4-Hexadien-1-ol] here?
A: Its value is 1.334.

Q: For `CCCCCO` [n-pentanol], which “log P Exp.” value [2] is on record?
A: The value was 1.51.

Q: What about the “Log P” value [2] of the same molecule?
A: Its value is 1.51.

Q: And the solubility [1]?
A: The solubility was 22 grams per liter.

Q: What about the “Sol (Exp)” value ([1]; 25° C.) of the same molecule?
A: The value was 22 g/L.

Q: What about the “solubility converted to percent by weight of an aqueous composition” value [3] of the same molecule?
A: The value was 2.2 % by weight.

Q: For `CCC(C)C(C)(C)O` (centres unmarked) [2,3-Dimethyl-2-pentanol], which “Sol (Exp)” value ([1]; 25° C.) is on record?
A: The value was 15.7 g/L.

Q: Which “Sol (Exp)” value ([1]; 25° C.) does the source give for `CCC(CC)CO` [2-Ethyl-1-butanol] here?
A: The value was 4 g/L.

Q: With `CCCC(O)CC` (centres unmarked) [3-hexanol] as the molecule, how does the “log P Exp.” value [2] read?
A: The value was 1.65.

Q: What about the “Log P” value [2] of the same molecule?
A: The value was 1.65.

Q: And the “Sol (Exp)” value ([1]; 25° C.)?
A: Its value is 16.1 g/L.

Q: And the “Solubility (at 25° C.)” value ([1]; water, 25° C., known values used for standard curve)?
A: Its value is 16.1 mg/mL (≈ 158 mM).

Q: Which “log P Exp.” value [2] does the source give for `CCC(O)CC` [3-pentanol] here?
A: Its value is 1.21.

Q: And the “Log P” value [2]?
A: Its value is 1.21.

Q: And the “Sol (Exp)” value ([1]; 25° C.)?
A: The value was 51.5 g/L.

Q: For `CCC(C)(C)CO` [2,2-Dimethyl-1-butanol], which “Sol (Exp)” value ([1]; 25° C.) is on record?
A: Its value is 7.6 g/L.

Q: For `CC(C)=CCO` [3-Methyl-2-buten-1-ol], which “log P Exp.” value [2] is on record?
A: Its value is 1.244.
